Laboratory results reported in patent publication US5945422A, “N-oxides of amino containing pyrido [2,3-D] pyrimidines” (Warner-Lambert Company, priority 1998, dated 1999).

What was measured:
Format in all cases: biochemical
[1] = molecular target: T1, human FGF-1 (flg) receptor tyrosine kinase (Homo sapiens, UniProt P11362); test: FGF receptor tyrosine kinase assay (FGFr-TK); settings: 10 min at 25° C., glutamate-tyrosine co-polymer substrate; read-out: FGFr-TK inhibition, IC50
T1 construct: amplify a fragment of DNA that codes for the intracellular tyrosine kinase domain; made in house; host or cells: SF9 insect cells, baculovirus (cell lysate used)
T1 sequence (P11362 478-767 limits assumed): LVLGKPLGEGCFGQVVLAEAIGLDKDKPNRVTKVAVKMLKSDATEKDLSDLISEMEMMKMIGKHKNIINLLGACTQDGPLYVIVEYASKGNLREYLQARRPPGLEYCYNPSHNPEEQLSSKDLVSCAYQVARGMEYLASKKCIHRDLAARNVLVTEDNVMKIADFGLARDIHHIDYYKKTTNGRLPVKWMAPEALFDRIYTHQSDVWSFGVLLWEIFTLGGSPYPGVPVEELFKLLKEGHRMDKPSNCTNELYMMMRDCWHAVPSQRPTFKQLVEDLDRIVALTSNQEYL
Text: PDGF and FGF Receptor Tyrosine Kinase Assays
Full length cDNAs for the mouse PDGF-β and human FGF-1 (flg) receptor tyrosine kinases were obtained from J. Escobedo and prepared as described in J. Biol. Chem., 262:1482-1487 […], and PCR primers were designed to amplify a fragment of DNA that codes for the intracellular tyrosine kinase domain. The fragment was melded into a baculovirus vector, cotransfected with AcMNPV DNA, and the recombinant virus isolated. SF9 insect cells were infected with the virus to overexpress the protein, and the cell lysate was used for the assay. […] Briefly, to each well was added 82.5 μL of incubation buffer containing 25 mM Hepes (pH 7.0), 150 mM NaCl, 0.1% Triton X-100, 0.2 mM PMSF, 0.2 mM Na3 VO4, 10 mM MnCl2, and 750 μg/mL of Poly (4:1) glutamate-tyrosine followed by 2.5 μL of inhibitor and 5 μL of enzyme lysate (7.5 μg/μL FGF-TK or 6.0 μg/μL PDGF-TK) to initiate the reaction. Following a 10 minute incubation at 25° C., 10 μL of γ^32 P-ATP (0.4 μCi plus 50 μM ATP) was added to each well and samples were incubated for an additional 10 minutes at 25° C. […] Nonspecific activity was defined as radioactivity retained on the filters following incubation of samples with buffer alone (no enzyme). […]

C-src kinase = molecular target: T2, C-src kinase (Homo sapiens, UniProt P12931); test: C-src kinase assay; settings: poly GluTyr substrate, 10 min, room temperature; read-out: C-src TK inhibition, IC50
T2 construct: made in house; host or cells: baculovirus infected insect cells
T2 sequence (P12931 whole entry): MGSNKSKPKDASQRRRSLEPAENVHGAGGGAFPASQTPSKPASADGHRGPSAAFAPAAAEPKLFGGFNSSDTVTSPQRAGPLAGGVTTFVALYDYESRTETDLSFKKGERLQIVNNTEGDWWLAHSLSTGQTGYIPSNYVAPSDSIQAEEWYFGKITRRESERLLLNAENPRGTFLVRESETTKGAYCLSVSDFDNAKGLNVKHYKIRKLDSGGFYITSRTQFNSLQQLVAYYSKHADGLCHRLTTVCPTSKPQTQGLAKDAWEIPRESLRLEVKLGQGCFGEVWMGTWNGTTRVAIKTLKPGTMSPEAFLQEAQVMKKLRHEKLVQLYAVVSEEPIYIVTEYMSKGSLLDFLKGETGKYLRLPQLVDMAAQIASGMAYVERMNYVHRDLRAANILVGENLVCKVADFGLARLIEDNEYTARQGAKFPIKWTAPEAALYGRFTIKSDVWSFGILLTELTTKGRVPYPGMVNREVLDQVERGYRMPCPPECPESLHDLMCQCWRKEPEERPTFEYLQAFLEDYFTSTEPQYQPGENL
Experimental: The antibody, covalently linked to 0.65-μm latex beads, is added to a suspension of insect cell lysis buffer comprised of 150 mM NaCl, 50 mM Tris pH 7.5, 1 mM DTT, 1% NP-40, 2 mM EGTA, 1 mM sodium vanadate, 1 mM PMSF, 1 μg/mL each of leupeptin, pepstatin, and aprotinin. […] At the end of the lysate incubation, the beads are rinsed 3 times in lysis buffer, resuspended in lysis buffer containing 10% glycerol, and frozen. These latex beads are thawed, rinsed 3 times in assay buffer which is comprised of 40 mM tris pH 7.5, 5 mM MgCl2, and suspended in the same buffer. […] The reaction is started at room temperature by addition of the ATP and quenched 10 minutes later by the addition of 125 μL of 30% TCA, 0.1M sodium pyrophosphate for 5 minutes on ice. The plate is then filtered and the wells washed with two 250-μL aliquots of 15% TCA, 0.1M pyrophosphate. The filters are punched, counted in a liquid scintillation counter, and the data examined for inhibitory activity in comparison to a known inhibitor such as erbstatin. The method is described more fully in J. Med. Chem., 37:598-609 (1994).

[2] = molecular target: T3, mouse PDGF-β receptor tyrosine kinase (Mus musculus, UniProt P05622); test: PDGF receptor tyrosine kinase assay (PDGFr-TK); settings: 10 min at 25° C., glutamate-tyrosine co-polymer substrate; read-out: PDGFr-TK inhibition, IC50
T3 construct: amplify a fragment of DNA that codes for the intracellular tyrosine kinase domain; made in house; host or cells: SF9 insect cells, baculovirus (cell lysate used)
T3 sequence (P05622 599-961 limits assumed): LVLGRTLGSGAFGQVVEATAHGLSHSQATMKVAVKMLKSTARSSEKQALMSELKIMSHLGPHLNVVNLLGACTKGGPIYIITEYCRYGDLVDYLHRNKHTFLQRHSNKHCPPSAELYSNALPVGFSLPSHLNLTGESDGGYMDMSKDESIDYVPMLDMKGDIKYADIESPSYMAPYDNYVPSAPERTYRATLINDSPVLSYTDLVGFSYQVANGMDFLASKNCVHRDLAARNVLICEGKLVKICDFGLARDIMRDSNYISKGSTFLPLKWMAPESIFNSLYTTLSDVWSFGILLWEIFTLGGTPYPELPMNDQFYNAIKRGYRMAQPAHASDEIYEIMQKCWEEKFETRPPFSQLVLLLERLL
Experimental: SF9 insect cells were infected with the virus to overexpress the protein, and the cell lysate was used for the assay. […] The reaction was terminated by the addition of 100 μL of 30% trichloroacetic acid (TCA) containing 20 mM sodium pyrophosphate and precipitation of material onto glass fiber filter mats (Wallac). […] Nonspecific activity was defined as radioactivity retained on the filters following incubation of samples with buffer alone (no enzyme). Specific enzymatic activity was defined as total activity (enzyme plus buffer) minus nonspecific activity.

## CC[N+]([O-])(CC)CCOc1ccc(Nc2ncc3cc(-c4c(Cl)cccc4Cl)c(=O)n(C)c3n2)cc1 [Example 43, 6-(2,6-Dichlorophenyl)-2-[4-[2-(diethylamino)ethoxyl-thenyl]aminol-8-methyl-pyridor2,3-d]pyrimidin-7 (8H)-one, N^ω -oxide]
[1]
  IC50: 63 nM
C-src kinase
  IC50: 15 nM
[2]
  IC50: 70 nM
